Measured values: paper PMC4745926, “Absorption, Metabolism, and Excretion by Freely Moving Rats of 3,4-DHPEA-EDA and Related Polyphenols from Olive Fruits (Olea europaea)” (Journal of Nutrition and Metabolism, 2016)
“Also recorded” adds a separate entry of the source. Like-named read-outs stand apart in the source and are kept apart here.

Assay: Jugular vein plasma levels after intravenous administration in jugular vein cannulated, freely moving rats
Type: in vivo, Wistar ST rats
Details: for Cmax: analyte HT, at 5 min after intravenous administration, read-out: C max of HT in plasma
Method: SPF Wistar ST rats (6 weeks of age, male, 180 ± 20 g of body weight) were purchased from Japan SLC Inc. (Hamamatsu, Japan). The rats were housed in an air-conditioned room at 22 ± 2°C under cycles of 12 hours dark and 12 hours light and given free access to a commercial diet and water for a week. The rats were then fasted for over 16 hours before the experiments. The present study was approved by the Animal Care and Use Committee at Kagawa University, and the rat treatment conformed to the Rules of Animal Experiments at Kagawa University. After fasting, the rats were cannulated with a polyethylene tube (PE-50; 0.58 mm I.D., 0.965 mm O.D.) into the jugular vein, portal vein, or bile duct under anesthesia with isoflurane inhalation using a WP-SAA01 (LMS Co., Ltd., Tokyo, Japan). A small hole was made in the vein or duct using pointed scissors and cannulated with the polyethylene tube. After inserting the tube, it was fixed at the edge of the vein or duct. The jugular vein and portal vein cannulas penetrated under the skin and were then tied at the back of the rats, and the bile duct cannula was tied at the abdomen of the rats. Bile duct-cannulated rats were then restrained in a Bollman cage (Natsume Seisakusho Co., Ltd., Tokyo, Japan). Before further experiments, the rats were allowed to recover from anesthesia. 3,4-[…] (300 mg/kg body weight; 936.51 μmol/kg) dissolved in 50% polyethylene glycol aqueous solution was administered orally via a stomach tube to the portal vein cannulated rats. Blood samples (450 μL) were then collected using a heparinized syringe attached to the cannula before administration and 5, 15, 30, 60, 120, and 240 min after administration. Urine was also collected before administration and 0 to 2 h and 2 to 4 h after administration. For intravenous administration, 3,4-[…] (10 mg/kg; 31.22 μmol/kg) was injected into the jugular vein, and blood (450 μL) was collected using a heparinized syringe before administration and 5, 15, 30, 60, 120, and 240 min after administration via the jugular vein cannula. The blood (450 μL) collected was immediately cooled on ice and centrifuged at 15,000 rpm for 5 min at 4°C to obtain over 200 μL plasma. Urine was also collected before administration and 0 to 2 h and 2 to 4 h after administration. Bile was collected via the bile duct cannula before administration and 0 to 2 h and 2 to 4 h after intravenous administration. The collected plasma, urine, and bile were immediately stored in an ice box until further analyses. HT (oral administration: 100 mg/kg; 648.66 μmol/kg, intravenous administration: 10 mg/kg; 64.87 μmol/kg) and Ole (oral administration: 300 mg/kg; 555.02 μmol/kg, intravenous administration: 10 mg/kg; 18.50 μmol/kg) were investigated using the same method as described above. Metabolites were deconjugated by using β-glucuronidase (500 U) and sulfatase (50 U) in 50 μL 625 mM MOPS (pH 6.8), which was added to 200 μL of plasma, urine, or bile. The mixture was incubated for 45 min at 37°C and subjected to extraction using QuEChERS [33]. […] Shimadzu, Kyoto, Japan) equipped with a Shim-pack XR-ODS column (3.0 mm I.D. × 100 mm; Shimadzu, Kyoto, Japan) at 40°C with a mobile phase of 0.5% TFA-1% acetonitrile aqueous solution (A) and 0.5% TFA-75% acetonitrile aqueous solution (B). The elution conditions are described as follows: isocratic elution of 0% B was maintained for 4.0 min; linear gradient 0 to 4% B, 4.0-4.5 min; linear gradient 4.0-16.0% B, 4.5-16.0 min; linear gradient 16.0-100% B, 16.0-25.0 min; isocratic elution of 100% B, 25.0-26.0 min; and linear gradient 100 to 0% B, 26.0-26.1 min, with a flow rate of 0.5 mL/min. Injection volume was 50 μL. All eluted peaks were detected at 279 nm with a diode array detector (SPD-M20A; Shimadzu, Kyoto, Japan). The absorption of 3,4-[…], and Ole was evaluated by dose-normalized 4 h area under the curve (AUC0→4 h/Dose) and C max/Dose values (Table 2). […]

[1] = after intravenous administration, 10 mg/kg

SMILES | AUC0→4 h-i.v./Dosei.v. (analyte HT in jugular vein plasma after intravenous administration) [μM·min·kg/μmol] | Cmax (10 mg/kg) [µM] | AUC0→4 h-i.v./Dosei.v. (analyte HVA in jugular vein plasma after intravenous administration) [μM·min·kg/μmol] | AUC0→4 h-i.v./Dosei.v. (analyte HVAOH in jugular vein plasma after intravenous administration) [μM·min·kg/μmol] | Detection of intact 3,4-DHPEA-EDA in plasma and hematocytes (jugular vein, after intravenous administration, 10 mg/kg, 31.22 μmol/kg, 10 mg/kg) | Time at which intact compound disappeared from the systemic circulation [1] | Cmax (male, Wistar ST, rat, plasma, 10 mg/kg) [µM] | Other metabolites in plasma throughout the blood sampling (after intravenous administration of Ole, 10 mg/kg) | concentration at 5 min (male, Wistar ST, rat, plasma, after intravenous administration, 10 mg/kg, 18.50 μmol/kg, read-out: Ole detected in the plasma at 5 min) [µM]
CC=C(C=O)C(CC=O)CC(=O)OCCc1ccc(O)c(O)c1 (stereo not shown) [3,4-DHPEA-EDA, 3,4-dihydroxyphenylethyl elenolate dialdehydic form] | 259.2 | ~131 | 22.4 | 56.0 | not detected; also recorded: not observed |  |  |  | 
OCCc1ccc(O)c(O)c1 [Hydroxytyrosol, 2-(3,4-dihydroxyphenyl) ethyl alcohol, reference compound] |  |  |  |  |  | about 15 min | 1740 |  | 
C/C=C1/[C@H](O[C@@H]2O[C@H](CO)[C@@H](O)[C@H](O)[C@H]2O)OC=C(C(=O)OC)[C@H]1CC(=O)OCCc1ccc(O)c(O)c1 [Oleuropein, reference compound] |  |  |  |  |  | ≤ 60 min |  | could not be detected | 502
